Laboratory results published in the kinase profiling compilation of Christmann-Franck et al. (2016).

Experiments:
Experiment in all cases: KINOMEscan competition binding
Settings in all cases: compound 10.0 µM
TLK2 (human) = TLK2 (human) (UniProt Q86UE8)
DAPK3 (human) = DAPK3 (human) (UniProt O43293)
CLK4 (human) = CLK4 (human) (UniProt Q9HAZ1)
PIM2 (human) = PIM2 (human) (UniProt Q9P1W9)
FER (human) = FER (human) (UniProt P16591)
FLT3 (human) = FLT3 (human) (UniProt P36888)
FGR (human) = FGR (human) (UniProt P09769)
STK32C (human) = STK32C (human) (UniProt Q86UX6)
TESK1 (human) = TESK1 (human) (UniProt Q15569)
MAP4K3 (human) = MAP4K3 (human) (UniProt Q8IVH8)
LCK (human) = LCK (human) (UniProt P06239)
Sequence of LCK (human) (P06239 whole entry, looked up): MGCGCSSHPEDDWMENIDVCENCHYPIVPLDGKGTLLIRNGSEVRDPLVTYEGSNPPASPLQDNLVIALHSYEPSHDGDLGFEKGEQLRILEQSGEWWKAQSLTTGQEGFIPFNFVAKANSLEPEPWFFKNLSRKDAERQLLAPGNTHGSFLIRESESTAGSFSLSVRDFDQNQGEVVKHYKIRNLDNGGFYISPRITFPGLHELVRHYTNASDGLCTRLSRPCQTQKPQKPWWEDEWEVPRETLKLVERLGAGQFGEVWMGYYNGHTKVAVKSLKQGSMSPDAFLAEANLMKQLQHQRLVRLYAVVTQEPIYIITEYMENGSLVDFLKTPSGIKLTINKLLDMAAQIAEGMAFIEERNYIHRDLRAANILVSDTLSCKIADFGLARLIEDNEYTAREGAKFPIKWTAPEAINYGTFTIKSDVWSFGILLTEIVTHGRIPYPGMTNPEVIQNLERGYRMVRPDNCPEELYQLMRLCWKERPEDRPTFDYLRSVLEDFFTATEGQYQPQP

MKNK1 (human) = MKNK1 (human) (UniProt Q9BUB5)
Sequence of MKNK1 (human) (Q9BUB5 whole entry, looked up): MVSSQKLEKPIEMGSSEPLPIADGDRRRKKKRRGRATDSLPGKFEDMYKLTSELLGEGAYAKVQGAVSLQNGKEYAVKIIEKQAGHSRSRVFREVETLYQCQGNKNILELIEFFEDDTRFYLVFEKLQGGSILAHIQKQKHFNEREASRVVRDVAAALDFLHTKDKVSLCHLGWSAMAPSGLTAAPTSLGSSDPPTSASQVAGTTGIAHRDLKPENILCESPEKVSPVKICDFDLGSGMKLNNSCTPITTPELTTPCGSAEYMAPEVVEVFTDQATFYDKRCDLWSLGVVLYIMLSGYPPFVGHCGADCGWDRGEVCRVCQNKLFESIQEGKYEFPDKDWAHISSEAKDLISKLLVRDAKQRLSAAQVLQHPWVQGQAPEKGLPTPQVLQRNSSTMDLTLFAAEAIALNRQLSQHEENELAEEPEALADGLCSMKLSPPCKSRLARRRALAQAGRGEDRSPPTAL

CAMK1G (human) = CAMK1G (human) (UniProt Q96NX5)
MAP2K1 (human) = MAP2K1 (human) (UniProt Q02750)
Sequence of MAP2K1 (human) (Q02750 whole entry, looked up): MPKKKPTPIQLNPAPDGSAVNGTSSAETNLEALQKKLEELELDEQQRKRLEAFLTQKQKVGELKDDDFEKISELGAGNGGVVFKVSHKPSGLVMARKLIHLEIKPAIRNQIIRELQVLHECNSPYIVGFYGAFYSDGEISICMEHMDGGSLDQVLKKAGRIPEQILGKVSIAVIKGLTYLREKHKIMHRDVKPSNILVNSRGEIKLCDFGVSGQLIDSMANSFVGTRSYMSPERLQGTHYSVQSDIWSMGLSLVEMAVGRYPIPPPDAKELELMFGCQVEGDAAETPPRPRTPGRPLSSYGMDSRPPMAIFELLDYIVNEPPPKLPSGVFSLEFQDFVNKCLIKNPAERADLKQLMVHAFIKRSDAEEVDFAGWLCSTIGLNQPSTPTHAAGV

CHEK2 (human) = CHEK2 (human) (UniProt O96017)
PKMYT1 (human) = PKMYT1 (human) (UniProt Q99640)
STK16 (human) = STK16 (human) (UniProt O75716)
Sequence of STK16 (human) (O75716 whole entry, looked up): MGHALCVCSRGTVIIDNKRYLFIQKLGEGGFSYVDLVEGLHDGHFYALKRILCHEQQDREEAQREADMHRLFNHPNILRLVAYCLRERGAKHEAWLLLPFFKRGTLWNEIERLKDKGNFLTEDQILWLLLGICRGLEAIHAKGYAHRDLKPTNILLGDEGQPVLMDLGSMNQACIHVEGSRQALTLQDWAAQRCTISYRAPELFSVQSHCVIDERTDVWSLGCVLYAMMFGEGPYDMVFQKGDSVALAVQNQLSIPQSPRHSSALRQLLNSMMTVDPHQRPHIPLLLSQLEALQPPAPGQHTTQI

CDK8 (human) = CDK8 (human) (UniProt P49336)
MYLK (human) = MYLK (human) (UniProt Q15746)
Sequence of MYLK (human) (Q15746 whole entry, looked up): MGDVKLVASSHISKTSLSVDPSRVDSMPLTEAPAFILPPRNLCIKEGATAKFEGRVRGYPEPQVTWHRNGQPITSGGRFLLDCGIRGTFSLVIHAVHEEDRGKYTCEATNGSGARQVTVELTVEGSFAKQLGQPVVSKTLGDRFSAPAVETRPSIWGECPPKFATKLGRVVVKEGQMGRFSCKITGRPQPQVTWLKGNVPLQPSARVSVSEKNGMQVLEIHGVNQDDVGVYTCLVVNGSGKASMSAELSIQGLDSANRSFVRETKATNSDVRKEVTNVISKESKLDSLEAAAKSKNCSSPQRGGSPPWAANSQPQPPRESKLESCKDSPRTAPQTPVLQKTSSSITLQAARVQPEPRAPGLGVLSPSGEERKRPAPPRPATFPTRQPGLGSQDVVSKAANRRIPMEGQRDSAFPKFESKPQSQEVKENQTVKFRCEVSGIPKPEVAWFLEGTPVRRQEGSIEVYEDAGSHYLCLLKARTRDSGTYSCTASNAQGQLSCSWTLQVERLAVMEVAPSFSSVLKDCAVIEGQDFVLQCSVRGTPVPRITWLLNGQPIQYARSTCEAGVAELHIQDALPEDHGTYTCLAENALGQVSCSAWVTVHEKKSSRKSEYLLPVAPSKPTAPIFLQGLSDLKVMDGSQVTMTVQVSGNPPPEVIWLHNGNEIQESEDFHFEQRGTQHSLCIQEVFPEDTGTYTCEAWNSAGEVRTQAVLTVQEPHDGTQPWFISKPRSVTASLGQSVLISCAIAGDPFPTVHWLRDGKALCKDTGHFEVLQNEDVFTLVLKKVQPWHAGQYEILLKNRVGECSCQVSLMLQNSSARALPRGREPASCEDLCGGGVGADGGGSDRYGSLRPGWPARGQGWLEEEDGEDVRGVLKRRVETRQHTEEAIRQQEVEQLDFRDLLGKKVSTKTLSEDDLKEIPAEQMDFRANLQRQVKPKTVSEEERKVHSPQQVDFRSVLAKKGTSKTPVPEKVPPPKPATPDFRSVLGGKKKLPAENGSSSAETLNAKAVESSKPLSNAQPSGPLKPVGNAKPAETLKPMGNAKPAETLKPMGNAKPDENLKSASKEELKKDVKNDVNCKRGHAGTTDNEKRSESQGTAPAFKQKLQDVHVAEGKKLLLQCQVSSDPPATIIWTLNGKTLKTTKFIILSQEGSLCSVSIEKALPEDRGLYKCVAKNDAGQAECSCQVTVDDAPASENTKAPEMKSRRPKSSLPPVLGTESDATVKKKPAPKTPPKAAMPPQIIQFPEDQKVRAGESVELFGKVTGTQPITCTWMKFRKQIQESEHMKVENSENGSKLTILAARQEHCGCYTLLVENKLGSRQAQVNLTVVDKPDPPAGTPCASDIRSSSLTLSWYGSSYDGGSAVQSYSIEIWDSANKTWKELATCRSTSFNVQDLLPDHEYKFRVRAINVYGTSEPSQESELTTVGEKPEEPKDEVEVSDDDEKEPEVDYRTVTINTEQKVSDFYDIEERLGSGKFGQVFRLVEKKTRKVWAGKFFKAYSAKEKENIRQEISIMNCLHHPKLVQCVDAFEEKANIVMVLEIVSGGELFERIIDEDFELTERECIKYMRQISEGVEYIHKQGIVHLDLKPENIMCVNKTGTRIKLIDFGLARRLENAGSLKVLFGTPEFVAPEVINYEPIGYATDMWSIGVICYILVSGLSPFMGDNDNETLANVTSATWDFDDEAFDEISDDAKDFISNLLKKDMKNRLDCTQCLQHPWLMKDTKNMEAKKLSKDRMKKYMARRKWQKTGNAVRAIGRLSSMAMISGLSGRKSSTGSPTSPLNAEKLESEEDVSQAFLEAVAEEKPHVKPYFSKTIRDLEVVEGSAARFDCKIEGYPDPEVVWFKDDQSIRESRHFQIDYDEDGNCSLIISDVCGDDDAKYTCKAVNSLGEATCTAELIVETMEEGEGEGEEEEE

PLK1 (human) = PLK1 (human) (UniProt P53350)
PHKG2 (human) = PHKG2 (human) (UniProt P15735)
CDK9 (human) = CDK9 (human) (UniProt P50750)
MAP2K4 (human) = MAP2K4 (human) (UniProt P45985)
[1] = test system: FLT3 (human), P36888 [N841I]
PRKG1 (human) = PRKG1 (human) (UniProt Q13976)
RET (human) = RET (human) (UniProt P07949)
PIP5K1A (human) = PIP5K1A (human) (UniProt Q99755)
NEK5 (human) = NEK5 (human) (UniProt Q6P3R8)
STK32B (human) = STK32B (human) (UniProt Q9NY57)
TGFBR1 (human) = TGFBR1 (human) (UniProt P36897)
PRKD2 (human) = PRKD2 (human) (UniProt Q9BZL6)
PDGFRA (human) = PDGFRA (human) (UniProt P16234)
TEK (human) = TEK (human) (UniProt Q02763)
MAPK7 (human) = MAPK7 (human) (UniProt Q13164)
SRMS (human) = SRMS (human) (UniProt Q9H3Y6)
Sequence of SRMS (human) (Q9H3Y6 whole entry, looked up): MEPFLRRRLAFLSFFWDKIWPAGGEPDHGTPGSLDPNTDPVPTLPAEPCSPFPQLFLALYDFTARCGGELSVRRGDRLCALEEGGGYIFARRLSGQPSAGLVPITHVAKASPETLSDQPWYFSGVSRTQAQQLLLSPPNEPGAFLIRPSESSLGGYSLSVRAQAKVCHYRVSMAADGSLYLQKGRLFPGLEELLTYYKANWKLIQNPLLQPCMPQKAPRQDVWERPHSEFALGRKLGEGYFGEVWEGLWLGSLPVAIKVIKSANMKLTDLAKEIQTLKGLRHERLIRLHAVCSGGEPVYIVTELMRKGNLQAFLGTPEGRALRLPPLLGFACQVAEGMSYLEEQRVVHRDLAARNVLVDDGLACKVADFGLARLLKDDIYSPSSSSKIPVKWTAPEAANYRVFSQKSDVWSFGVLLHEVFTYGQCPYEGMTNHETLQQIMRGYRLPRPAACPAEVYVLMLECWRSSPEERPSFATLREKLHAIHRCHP

ADCK4 (human) = ADCK4 (human) (UniProt Q96D53)
CDK15 (human) = CDK15 (human) (UniProt Q96Q40)
MAPK4 (human) = MAPK4 (human) (UniProt P31152)
BMPR1B (human) = BMPR1B (human) (UniProt O00238)
TXK (human) = TXK (human) (UniProt P42681)
Sequence of TXK (human) (P42681 whole entry, looked up): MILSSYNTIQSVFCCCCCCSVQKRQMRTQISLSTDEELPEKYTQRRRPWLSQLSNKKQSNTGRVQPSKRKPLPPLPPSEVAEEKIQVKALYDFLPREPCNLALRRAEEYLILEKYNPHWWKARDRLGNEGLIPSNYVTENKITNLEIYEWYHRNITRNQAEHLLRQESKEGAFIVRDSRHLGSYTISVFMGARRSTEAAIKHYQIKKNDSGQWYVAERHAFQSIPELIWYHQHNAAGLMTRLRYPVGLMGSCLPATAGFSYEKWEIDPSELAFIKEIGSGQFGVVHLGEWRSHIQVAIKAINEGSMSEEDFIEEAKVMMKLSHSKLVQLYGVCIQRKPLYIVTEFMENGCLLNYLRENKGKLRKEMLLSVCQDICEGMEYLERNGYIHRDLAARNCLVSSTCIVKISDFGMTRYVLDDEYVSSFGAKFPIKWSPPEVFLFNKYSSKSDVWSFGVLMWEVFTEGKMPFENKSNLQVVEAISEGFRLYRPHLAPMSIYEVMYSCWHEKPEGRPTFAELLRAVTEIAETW

NTRK1 (human) = NTRK1 (human) (UniProt P04629)

Sequence of PIM2 (human) (Q9P1W9 whole entry, looked up): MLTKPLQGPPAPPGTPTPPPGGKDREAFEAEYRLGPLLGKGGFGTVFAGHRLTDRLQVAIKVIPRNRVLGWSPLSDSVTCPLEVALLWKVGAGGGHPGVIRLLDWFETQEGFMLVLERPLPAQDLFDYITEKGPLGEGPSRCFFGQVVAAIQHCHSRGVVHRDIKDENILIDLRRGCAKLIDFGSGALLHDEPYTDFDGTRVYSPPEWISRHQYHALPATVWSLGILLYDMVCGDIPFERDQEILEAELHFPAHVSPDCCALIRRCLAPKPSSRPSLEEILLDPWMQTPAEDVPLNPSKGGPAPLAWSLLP

SMILES	kinase still bound, per cent of control (TLK2 (human))	kinase still bound, per cent of control (DAPK3 (human))	kinase still bound, per cent of control (CLK4 (human))	kinase still bound, per cent of control (PIM2 (human))	kinase still bound, per cent of control (FER (human))	kinase still bound, per cent of control (FLT3 (human))	kinase still bound, per cent of control (FGR (human))	kinase still bound, per cent of control (STK32C (human))	kinase still bound, per cent of control (TESK1 (human))	kinase still bound, per cent of control (MAP4K3 (human))	kinase still bound, per cent of control (LCK (human))	kinase still bound, per cent of control (MKNK1 (human))	kinase still bound, per cent of control (CAMK1G (human))	kinase still bound, per cent of control (MAP2K1 (human))	kinase still bound, per cent of control (CHEK2 (human))	kinase still bound, per cent of control (PKMYT1 (human))	kinase still bound, per cent of control (STK16 (human))	kinase still bound, per cent of control (CDK8 (human))	kinase still bound, per cent of control (MYLK (human))	kinase still bound, per cent of control (PHKG2 (human))	further results
Cn1c(=O)n(-c2ccc(C(C)(C)C#N)cc2)c2c3cc(-c4cnc5ccccc5c4)ccc3ncc21	100%	100%	22%	100%	100%	100%	100%	100%	100%	100%	100%	100%	100%	100%	100%	100%	100%	100%	100%	100%	kinase still bound, per cent of control (PLK1 (human)): 100%; kinase still bound, per cent of control (CDK9 (human)): 100%; kinase still bound, per cent of control (MAP2K4 (human)): 100%; kinase still bound, per cent of control [1]: 100%; kinase still bound, per cent of control (PRKG1 (human)): 100%; kinase still bound, per cent of control (RET (human)): 100%; kinase still bound, per cent of control (PIP5K1A (human)): 100%; kinase still bound, per cent of control (NEK5 (human)): 100%; kinase still bound, per cent of control (STK32B (human)): 100%; kinase still bound, per cent of control (TGFBR1 (human)): 100%; kinase still bound, per cent of control (PRKD2 (human)): 100%; kinase still bound, per cent of control (PDGFRA (human)): 100%; kinase still bound, per cent of control (TEK (human)): 100%; kinase still bound, per cent of control (MAPK7 (human)): 100%; kinase still bound, per cent of control (SRMS (human)): 100%; kinase still bound, per cent of control (ADCK4 (human)): 100%; kinase still bound, per cent of control (CDK15 (human)): 100%; kinase still bound, per cent of control (MAPK4 (human)): 100%; kinase still bound, per cent of control (BMPR1B (human)): 100%; kinase still bound, per cent of control (TXK (human)): 100%
CC[C@@H]1C(=O)N(C)c2cnc(Nc3ccc(C(=O)NC4CCN(C)CC4)cc3OC)nc2N1C1CCCC1	100%	3.6%	100%	100%	100%	100%	100%	100%	100%	100%	100%	100%	100%	100%	100%	100%	14%	100%	3.6%	20%	kinase still bound, per cent of control (CDK9 (human)): 100%; kinase still bound, per cent of control (MAP2K4 (human)): 100%; kinase still bound, per cent of control [1]: 100%; kinase still bound, per cent of control (PRKG1 (human)): 100%; kinase still bound, per cent of control (RET (human)): 100%; kinase still bound, per cent of control (PIP5K1A (human)): 100%; kinase still bound, per cent of control (NEK5 (human)): 100%; kinase still bound, per cent of control (STK32B (human)): 100%; kinase still bound, per cent of control (TGFBR1 (human)): 100%; kinase still bound, per cent of control (PRKD2 (human)): 16%; kinase still bound, per cent of control (PDGFRA (human)): 100%; kinase still bound, per cent of control (TEK (human)): 100%; kinase still bound, per cent of control (MAPK7 (human)): 19%; kinase still bound, per cent of control (SRMS (human)): 100%; kinase still bound, per cent of control (ADCK4 (human)): 100%; kinase still bound, per cent of control (CDK15 (human)): 100%; kinase still bound, per cent of control (MAPK4 (human)): 100%; kinase still bound, per cent of control (BMPR1B (human)): 100%; kinase still bound, per cent of control (TXK (human)): 100%
O=C(O)c1ccc(Nc2ncc3c(n2)-c2ccc(Cl)cc2C(c2c(F)cccc2F)=NC3)cc1	83%	70%	100%	36%	22%	80%	7.6%	50%	100%	97%	1.6%	100%	79%	86%	100%	65%	30%	100%	95%	73%	kinase still bound, per cent of control (PLK1 (human)): 100%; kinase still bound, per cent of control (MAP2K4 (human)): 100%; kinase still bound, per cent of control (NTRK1 (human)): 35%; kinase still bound, per cent of control (PRKG1 (human)): 100%; kinase still bound, per cent of control (RET (human)): 59%; kinase still bound, per cent of control (PIP5K1A (human)): 100%; kinase still bound, per cent of control (NEK5 (human)): 46%; kinase still bound, per cent of control (STK32B (human)): 38%; kinase still bound, per cent of control (TGFBR1 (human)): 98%; kinase still bound, per cent of control (PRKD2 (human)): 92%; kinase still bound, per cent of control (PDGFRA (human)): 56%; kinase still bound, per cent of control (TEK (human)): 3%; kinase still bound, per cent of control (MAPK7 (human)): 100%; kinase still bound, per cent of control (SRMS (human)): 54%; kinase still bound, per cent of control (ADCK4 (human)): 95%; kinase still bound, per cent of control (CDK15 (human)): 100%; kinase still bound, per cent of control (MAPK4 (human)): 66%; kinase still bound, per cent of control (BMPR1B (human)): 86%; kinase still bound, per cent of control (TXK (human)): 46%
